Laboratory results published in patent publication US20230263757A1, “DISINFECTING WIPE KIT FOR CENTRAL VENOUS ACCESS DEVICES” (SterileCare Inc., priority 2022, published 2023).
Structures can show the parent of a compound that is named as a salt. Where two headings read alike, the source gives them in different places.

Tests used:
Candida albicans SK4b [1] = test: MIC, micro broth dilution; assay type: cell-based; settings: alone
Experimental: (§1) An assay was made using a minimum inhibitory concentration (MIC) and minimum bactericidal concentration (MBC) and minimum fungicidal concentration (MFC) determination. The MIC was determined by the micro broth dilution method in 96-well plates. Serial two-fold dilutions of tetrasodium EDTA (from 2% to 0.015%), ethanol (from 50% to 0.1%) and chlorhexidine HCl (from 100 μg/mL to 0.025 μg/mL) were prepared in MH broth with a final volume of 90 μL per well. A 10 μL containing 1×10^5 bacterial cells or 2×10^3 fungal cells were added to each well. The inoculated plates were covered with a lid, sealed with Parafilm, and incubated for 24 h at 37° C. with slight rocking on a tilting platform shaker. After incubation, the optical density at 600 nm (OD 600) of the cultures in each well was measured using an xMark™ Microplate Absorbance Spectrophotometer (Bio-Rad). […] MBCs and MFCs were determined by transferring 100 μL from each well with no apparent growth onto appropriate agar plates, followed by incubation for 24 h at 37° C.

Escherichia coli ON29 [2] = test: MIC, micro broth dilution; assay type: cell-based; settings: alone
Experimental: as §1

Proteus mirabilis ON153 [3] = test: MIC, micro broth dilution; assay type: cell-based; settings: alone
Experimental: as §1

[4] = system: Pseudomonas aeruginosa SK1; test: MIC, micro broth dilution; assay type: cell-based; settings: alone
Experimental: as §1

Serratia marcescens SK2 [5] = test: MIC, micro broth dilution; assay type: cell-based; settings: alone
Experimental: as §1

[6] = system: Staphylococcus aureus ON89; test: MIC, micro broth dilution; assay type: cell-based; settings: alone
Experimental: as §1

[7] = system: Staphylococcus epidermidis ON170; test: MIC, micro broth dilution; assay type: cell-based; settings: alone
Experimental: as §1

[8] = system: Stenotrophomonas maltophilia ON17; test: MIC, micro broth dilution; assay type: cell-based; settings: alone
Experimental: as §1

E. coli SK2 = test: Checkerboard titration, FICI; assay type: cell-based, Escherichia coli
Experimental: (§2) A fourth composition and solution included tetrasodium EDTA with ethanol or chlorhexidine HCl. This fourth composition and solution were created using checkerboard titration methods using micro broth dilution in 96-well microtiter plates. The concentrations of antimicrobials used were based on previously determined MIC values. Briefly, 200 μL, of two-fold dilutions of tetrasodium EDTA and ethanol or chlorhexidine HCl were prepared in MH or MH II broth with standardized cell suspension. […] Microtiter plates were incubated at 37° C. for 24 h, and the results were analyzed. Each test was performed in duplicate and included a growth control without adding any antimicrobials.

C. albicans ON47 [9] = test: Checkerboard titration, FICI; assay type: cell-based, Candida albicans
Experimental: as §2

S. epidermidis SK9 = test: MBC/MFC determination; assay type: cell-based, Staphylococcus epidermidis; settings: alone
Experimental: as §1

C. albicans ON47 [10] = test: MBC/MFC determination; assay type: cell-based, Candida albicans; settings: alone
Experimental: as §1

MRSA ON184 = test: Checkerboard, FMCI; assay type: cell-based, S. aureus
Experimental: as §1, §2

Candida albicans SK4b [11] = test: Checkerboard, FMCI; assay type: cell-based
Experimental: as §1, §2

Escherichia coli ON29 [12] = test: Checkerboard, FMCI; assay type: cell-based
Experimental: as §1, §2

Proteus mirabilis ON153 [13] = test: Checkerboard, FMCI; assay type: cell-based
Experimental: as §1, §2

[14] = system: Pseudomonas aeruginosa SK1; test: Checkerboard, FMCI; assay type: cell-based
Experimental: as §1, §2

Serratia marcescens SK2 [15] = test: Checkerboard, FMCI; assay type: cell-based
Experimental: as §1, §2

[16] = system: Staphylococcus aureus ON89; test: Checkerboard, FMCI; assay type: cell-based
Experimental: as §1, §2

[17] = system: Staphylococcus epidermidis ON170; test: Checkerboard, FMCI; assay type: cell-based
Experimental: as §1, §2

[18] = system: Stenotrophomonas maltophilia ON17; test: Checkerboard, FMCI; assay type: cell-based
Experimental: as §1, §2

[19] = system: Staphylococcus aureus ON89; test: FBEC index, checkerboard on biofilms; assay type: cell-based
Experimental: (§3) In step (4), microtiter plates are incubated at 37° C. for 24 h. then (6), after incubation, the bacterial and fungal cells were dislodged from the pegs into the recovery medium described above.
(§4) Three 10-μL aliquots, for a total of 30 μL from each well of recovery medium, were spotted on MH agar plates and incubated for 24 h at 37° C. […] The FBEC determination is a modification of the FICI.

[20] = system: Pseudomonas aeruginosa SK1; test: FBEC index, checkerboard on biofilms; assay type: cell-based
Experimental: as §3, §4

Candida albicans SK4b [21] = test: FBEC index, checkerboard on biofilms; assay type: cell-based
Experimental: as §3, §4

C. albicans ON47 [22] = test: FBEC index, checkerboard on biofilms; assay type: cell-based, Candida albicans
Experimental: as §3, §4

all test organisms = test: MIC, micro broth dilution (summary in text); assay type: cell-based; settings: planktonic cells, read-out: MICs ranging over all test organisms
Experimental: An assay was made using a minimum inhibitory concentration (MIC) and minimum bactericidal concentration (MBC) and minimum fungicidal concentration (MFC) determination. The MIC was determined by the micro broth dilution method in 96-well plates. […] A 10 μL containing 1×10^5 bacterial cells or 2×10^3 fungal cells were added to each well. The inoculated plates were covered with a lid, sealed with Parafilm, and incubated for 24 h at 37° C. with slight rocking on a tilting platform shaker. After incubation, the optical density at 600 nm (OD 600) of the cultures in each well was measured using an xMark™ Microplate Absorbance Spectrophotometer (Bio-Rad). The MIC was defined as the lowest concentration of antimicrobial compound at which the culture OD600 values were similar to uninoculated control wells. MBCs and MFCs were determined by transferring 100 μL from each well with no apparent growth onto appropriate agar plates, followed by incubation for 24 h at 37° C.

O=C([O-])CN(CCN(CC(=O)[O-])CC(=O)[O-])CC(=O)[O-].[Na+].[Na+].[Na+].[Na+] [EDTA, tetrasodium EDTA]
MIC (Candida albicans SK4b [1]): 1 % w/v | MIC (Escherichia coli ON29 [2]): 0.5 % w/v | MIC (Proteus mirabilis ON153 [3]): 1 % w/v | MIC [4]: 0.25 % w/v | MIC (Serratia marcescens SK2 [5]): 2 % w/v | MIC [6]: 0.063 % w/v | MIC [7]: 0.063 % w/v | MIC [8]: 0.063 % w/v | EDTA concentration in combination (E. coli SK2; EDTA + chlorhexidine HCl): 0.008 % w/v | concentration in combination (E. coli SK2; EDTA + ethanol): 0.015 % w/v | EDTA concentration in combination (C. albicans ON47 [9]; EDTA + chlorhexidine HCl): 0.125 % w/v | concentration in combination (C. albicans ON47 [9]; EDTA + ethanol): 0.25 % w/v | MBC/MFC (S. epidermidis SK9): 0.5 % w/v | MBC/MFC (C. albicans ON47 [10]): 1 % w/v | EDTA microbicidal concentration in combination (MRSA ON184; EDTA + chlorhexidine HCl): 0.125 % w/v | microbicidal concentration in combination (MRSA ON184; EDTA + ethanol): 0.031 % w/v | EDTA microbicidal concentration in combination (Candida albicans SK4b [11]; EDTA + chlorhexidine HCl): 0.125 % w/v | microbicidal concentration in combination (Candida albicans SK4b [11]; EDTA + ethanol): 0.25 % w/v | EDTA microbicidal concentration in combination (Escherichia coli ON29 [12]; EDTA + chlorhexidine HCl): 0.008 % w/v | microbicidal concentration in combination (Escherichia coli ON29 [12]; EDTA + ethanol): 0.25 % w/v | EDTA microbicidal concentration in combination (Proteus mirabilis ON153 [13]; EDTA + chlorhexidine HCl): 0.125 % w/v | microbicidal concentration in combination (Proteus mirabilis ON153 [13]; EDTA + ethanol): 0.063 % w/v | EDTA microbicidal concentration in combination ([14]; EDTA + chlorhexidine HCl): 0.031 % w/v | microbicidal concentration in combination ([14]; EDTA + ethanol): 0.031 % w/v | EDTA microbicidal concentration in combination (Serratia marcescens SK2 [15]; EDTA + chlorhexidine HCl): 0.125 % w/v | microbicidal concentration in combination (Serratia marcescens SK2 [15]; EDTA + ethanol): 0.25 % w/v | EDTA microbicidal concentration in combination ([16]; EDTA + chlorhexidine HCl): 0.008 % w/v | microbicidal concentration in combination ([16]; EDTA + ethanol): 0.25 % w/v | EDTA microbicidal concentration in combination ([17]; EDTA + chlorhexidine HCl): 0.25 % w/v | microbicidal concentration in combination ([17]; EDTA + ethanol): 0.031 % w/v | EDTA microbicidal concentration in combination ([18]; EDTA + chlorhexidine HCl): 0.031 % w/v | microbicidal concentration in combination ([18]; EDTA + ethanol): 0.125 % w/v | EDTA biofilm eradication concentration in combination (FBEC) ([19]; EDTA + chlorhexidine HCl): 0.125 % w/v | biofilm eradication concentration in combination (FBEC) ([19]; EDTA + ethanol): 0.063 % w/v | EDTA biofilm eradication concentration in combination (FBEC) ([20]; EDTA + chlorhexidine HCl): 0.25 % w/v | biofilm eradication concentration in combination (FBEC) ([20]; EDTA + ethanol): 0.125 % w/v | EDTA biofilm eradication concentration in combination (FBEC) (Candida albicans SK4b [21]; EDTA + chlorhexidine HCl): 0.063 % w/v | biofilm eradication concentration in combination (FBEC) (Candida albicans SK4b [21]; EDTA + ethanol): 0.125 % w/v | EDTA biofilm eradication concentration in combination (FBEC) (C. albicans ON47 [22]; EDTA + chlorhexidine HCl): 0.031 % w/v | biofilm eradication concentration in combination (FBEC) (C. albicans ON47 [22]; EDTA + ethanol): 0.125 % w/v

[H]/N=C(\N/C(=N/[H])NCCCCCCNC(=N)NC(=N)Nc1ccc(Cl)cc1)Nc1ccc(Cl)cc1 [Chlorhexidine HCl, 1,6-bis(4′-chlorophenylbiguanide) hexane]
MIC (Candida albicans SK4b [1]; read-out: MIC): 1.6 µg/mL | MIC (Escherichia coli ON29 [2]; read-out: MIC): 0.4 µg/mL | MIC (Proteus mirabilis ON153 [3]; read-out: MIC): 50 µg/mL | MIC ([4]; read-out: MIC): 1.6 µg/mL | MIC (Serratia marcescens SK2 [5]; read-out: MIC): 12.5 µg/mL | MIC ([6]; read-out: MIC): 0.1 µg/mL | MIC ([7]; read-out: MIC): 0.1 µg/mL | MIC ([8]; read-out: MIC): 0.8 µg/mL | Chlorhexidine HCl concentration in combination (E. coli SK2; EDTA + chlorhexidine HCl): 0.1 µg/mL | Chlorhexidine HCl concentration in combination (C. albicans ON47 [9]; EDTA + chlorhexidine HCl): 0.8 µg/mL | MBC/MFC (S. epidermidis SK9): 0.8 µg/mL | MBC/MFC (C. albicans ON47 [10]): 3.125 µg/mL | Chlorhexidine HCl microbicidal concentration in combination (MRSA ON184; EDTA + chlorhexidine HCl): 0.4 µg/mL | Chlorhexidine HCl microbicidal concentration in combination (Candida albicans SK4b [11]; EDTA + chlorhexidine HCl): 0.8 µg/mL | Chlorhexidine HCl microbicidal concentration in combination (Escherichia coli ON29 [12]; EDTA + chlorhexidine HCl): 0.2 µg/mL | Chlorhexidine HCl microbicidal concentration in combination (Proteus mirabilis ON153 [13]; EDTA + chlorhexidine HCl): 1.6 µg/mL | Chlorhexidine HCl microbicidal concentration in combination ([14]; EDTA + chlorhexidine HCl): 1.6 µg/mL | Chlorhexidine HCl microbicidal concentration in combination (Serratia marcescens SK2 [15]; EDTA + chlorhexidine HCl): 1.6 µg/mL | Chlorhexidine HCl microbicidal concentration in combination ([16]; EDTA + chlorhexidine HCl): 0.2 µg/mL | Chlorhexidine HCl microbicidal concentration in combination ([17]; EDTA + chlorhexidine HCl): 0.4 µg/mL | Chlorhexidine HCl microbicidal concentration in combination ([18]; EDTA + chlorhexidine HCl): 0.4 µg/mL | Chlorhexidine HCl biofilm eradication concentration in combination (FBEC) ([19]; EDTA + chlorhexidine HCl): 3.125 µg/mL | Chlorhexidine HCl biofilm eradication concentration in combination (FBEC) ([20]; EDTA + chlorhexidine HCl): 3.125 µg/mL | Chlorhexidine HCl biofilm eradication concentration in combination (FBEC) (Candida albicans SK4b [21]; EDTA + chlorhexidine HCl): 6.25 µg/mL | Chlorhexidine HCl biofilm eradication concentration in combination (FBEC) (C. albicans ON47 [22]; EDTA + chlorhexidine HCl): 6.25 µg/mL | MIC (all test organisms): 0.1 to 50 µg/mL
